Measured values as given in ChEMBL document CHEMBL4665643 (Bioorg Med Chem Lett, 2019).

Legend:
[1] = biological target: Proto-oncogene tyrosine-protein kinase Src (Homo sapiens) (UniProt P12931); experiment: Inhibition of recombinant human C-terminal His-tagged full length SRC expressed in baculovirus expression system using Tyr 02 as substrate at 0.1 uM incubated for 60 mins by Z'-Lyte assay relative to control
[2] = biological target: Tyrosine-protein kinase Yes (Homo sapiens) (UniProt P07947); experiment: Inhibition of recombinant human GST-tagged full length YES expressed in baculovirus expression system using Tyr 02 as substrate at 0.1 uM incubated for 60 mins by Z'-Lyte assay relative to control
Sequence of Tyrosine-protein kinase Yes (Homo sapiens) (P07947 2-543 limits assumed): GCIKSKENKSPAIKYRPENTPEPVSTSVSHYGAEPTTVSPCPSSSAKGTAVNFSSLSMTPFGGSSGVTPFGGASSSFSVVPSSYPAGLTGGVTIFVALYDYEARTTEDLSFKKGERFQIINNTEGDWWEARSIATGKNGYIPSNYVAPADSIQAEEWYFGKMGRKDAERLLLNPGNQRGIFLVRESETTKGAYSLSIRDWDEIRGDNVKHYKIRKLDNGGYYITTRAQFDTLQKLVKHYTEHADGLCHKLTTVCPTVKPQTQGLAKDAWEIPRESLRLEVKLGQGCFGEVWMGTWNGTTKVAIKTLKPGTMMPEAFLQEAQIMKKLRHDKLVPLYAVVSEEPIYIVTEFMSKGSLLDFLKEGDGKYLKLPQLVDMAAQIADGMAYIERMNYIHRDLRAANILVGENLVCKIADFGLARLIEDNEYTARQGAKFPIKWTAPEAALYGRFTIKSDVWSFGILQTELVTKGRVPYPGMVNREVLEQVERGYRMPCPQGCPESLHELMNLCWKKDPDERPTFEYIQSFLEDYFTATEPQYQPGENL

[3] = biological target: Protein kinase C beta type (Homo sapiens) (UniProt P05771); experiment: Inhibition of recombinant human GST-tagged full length PKCbeta2 expressed in insect expression system using Ser/Thr 07 as substrate at 0.1 uM incubated for 60 mins by Z'-lyte assay relative to control
Sequence of Protein kinase C beta type (Homo sapiens) (P05771 2-671 limits assumed): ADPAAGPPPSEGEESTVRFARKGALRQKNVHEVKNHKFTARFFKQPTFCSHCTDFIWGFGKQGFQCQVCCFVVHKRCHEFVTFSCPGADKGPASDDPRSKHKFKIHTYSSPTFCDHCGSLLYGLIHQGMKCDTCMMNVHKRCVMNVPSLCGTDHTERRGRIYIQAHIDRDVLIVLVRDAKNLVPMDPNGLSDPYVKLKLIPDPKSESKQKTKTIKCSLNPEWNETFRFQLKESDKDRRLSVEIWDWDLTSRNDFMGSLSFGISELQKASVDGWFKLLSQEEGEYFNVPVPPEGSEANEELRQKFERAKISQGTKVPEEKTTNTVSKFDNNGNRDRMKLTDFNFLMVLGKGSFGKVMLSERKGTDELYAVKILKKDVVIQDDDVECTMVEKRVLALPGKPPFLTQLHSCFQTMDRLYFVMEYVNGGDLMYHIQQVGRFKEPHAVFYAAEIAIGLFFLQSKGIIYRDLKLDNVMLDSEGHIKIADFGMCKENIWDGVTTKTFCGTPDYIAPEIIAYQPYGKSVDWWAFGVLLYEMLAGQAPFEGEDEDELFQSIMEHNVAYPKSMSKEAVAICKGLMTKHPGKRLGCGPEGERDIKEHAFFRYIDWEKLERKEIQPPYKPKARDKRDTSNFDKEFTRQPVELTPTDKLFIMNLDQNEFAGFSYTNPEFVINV

[4] = biological target: Glycogen synthase kinase-3 beta (Homo sapiens) (UniProt P49841); experiment: Inhibition of recombinant human N-terminal GST-tagged full length GSK3beta expressed in baculovirus expression system using Ser/Thr 09 as substrate at 0.1 uM incubated for 60 mins by Z'-Lyte assay relative to control
Sequence of Glycogen synthase kinase-3 beta (Homo sapiens) (P49841 whole entry, looked up, the tested form may be a part): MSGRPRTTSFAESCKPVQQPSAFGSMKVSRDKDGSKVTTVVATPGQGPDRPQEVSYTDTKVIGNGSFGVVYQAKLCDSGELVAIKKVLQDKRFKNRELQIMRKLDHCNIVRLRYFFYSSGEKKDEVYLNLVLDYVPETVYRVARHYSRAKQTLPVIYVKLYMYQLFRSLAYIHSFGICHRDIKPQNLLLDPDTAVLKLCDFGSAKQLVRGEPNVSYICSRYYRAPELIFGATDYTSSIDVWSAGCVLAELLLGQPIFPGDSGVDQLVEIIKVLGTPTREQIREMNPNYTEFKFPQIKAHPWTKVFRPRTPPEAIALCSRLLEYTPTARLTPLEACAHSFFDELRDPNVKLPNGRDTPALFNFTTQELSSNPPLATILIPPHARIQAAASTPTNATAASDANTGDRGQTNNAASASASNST

[5] = biological target: Macrophage colony-stimulating factor 1 receptor (Homo sapiens) (UniProt P07333); experiment: Inhibition of recombinant human His-tagged CSF1R (538 to 910 residues) expressed in baculovirus expression system using Tyr 01 as substrate at 0.1 uM incubated for 60 mins by Z'-Lyte assay relative to control
Sequence of Macrophage colony-stimulating factor 1 receptor (Homo sapiens) (P07333 whole entry, the tested form may be a part): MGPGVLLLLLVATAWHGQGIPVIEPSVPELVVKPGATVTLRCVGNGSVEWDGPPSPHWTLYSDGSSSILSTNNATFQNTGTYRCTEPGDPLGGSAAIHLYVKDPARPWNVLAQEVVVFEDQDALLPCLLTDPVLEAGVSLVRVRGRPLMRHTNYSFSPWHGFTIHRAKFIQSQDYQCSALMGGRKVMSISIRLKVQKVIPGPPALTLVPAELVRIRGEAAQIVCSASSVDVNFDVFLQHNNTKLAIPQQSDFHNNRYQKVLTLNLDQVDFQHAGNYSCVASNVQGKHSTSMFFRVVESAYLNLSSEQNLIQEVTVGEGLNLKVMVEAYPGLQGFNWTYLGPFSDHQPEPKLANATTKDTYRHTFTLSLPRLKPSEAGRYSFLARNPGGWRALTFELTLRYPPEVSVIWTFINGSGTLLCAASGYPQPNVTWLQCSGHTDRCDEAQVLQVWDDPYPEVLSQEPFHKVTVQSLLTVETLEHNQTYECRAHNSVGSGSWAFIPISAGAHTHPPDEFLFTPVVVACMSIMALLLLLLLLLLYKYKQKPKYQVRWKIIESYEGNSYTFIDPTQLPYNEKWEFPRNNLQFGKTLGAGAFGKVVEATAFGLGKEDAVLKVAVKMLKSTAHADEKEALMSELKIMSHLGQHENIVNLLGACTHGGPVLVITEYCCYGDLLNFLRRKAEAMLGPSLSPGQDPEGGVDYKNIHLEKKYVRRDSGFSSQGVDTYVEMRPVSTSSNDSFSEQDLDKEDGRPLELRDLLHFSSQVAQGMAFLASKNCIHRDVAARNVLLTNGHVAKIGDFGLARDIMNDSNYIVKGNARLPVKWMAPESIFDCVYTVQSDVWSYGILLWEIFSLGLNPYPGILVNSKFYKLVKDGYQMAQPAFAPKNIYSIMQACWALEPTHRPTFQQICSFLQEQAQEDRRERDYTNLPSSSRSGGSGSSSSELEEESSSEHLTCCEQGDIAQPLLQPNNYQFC

[6] = biological target: Mitogen-activated protein kinase 3 (Homo sapiens) (UniProt P27361); experiment: Inhibition of recombinant human GST-tagged full length ERK1 expressed in Escherichia coli expression system using Ser/Thr 03 as substrate at 0.1 uM incubated for 60 mins by Z'-Lyte assay relative to control
Sequence of Mitogen-activated protein kinase 3 (Homo sapiens) (P27361 whole entry): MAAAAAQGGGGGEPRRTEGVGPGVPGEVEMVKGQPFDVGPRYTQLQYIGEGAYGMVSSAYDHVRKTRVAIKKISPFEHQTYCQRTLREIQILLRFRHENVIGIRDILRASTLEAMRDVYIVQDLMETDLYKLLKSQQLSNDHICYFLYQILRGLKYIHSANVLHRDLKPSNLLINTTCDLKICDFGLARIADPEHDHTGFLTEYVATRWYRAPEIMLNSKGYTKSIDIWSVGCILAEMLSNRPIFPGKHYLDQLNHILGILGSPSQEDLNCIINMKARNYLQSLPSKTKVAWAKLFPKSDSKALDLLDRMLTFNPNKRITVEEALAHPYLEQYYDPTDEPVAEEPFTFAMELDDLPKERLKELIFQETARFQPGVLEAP

[7] = biological target: T1, Dual specificity protein kinase TTK (Homo sapiens) (UniProt P33981); experiment: Inhibition of tracer 236 binding to recombinant human GST-tagged full length TTK expressed in baculovirus expression system at 0.1 uM incubated for 60 mins by Lanthascreen assay relative to control
T1 sequence (whole entry): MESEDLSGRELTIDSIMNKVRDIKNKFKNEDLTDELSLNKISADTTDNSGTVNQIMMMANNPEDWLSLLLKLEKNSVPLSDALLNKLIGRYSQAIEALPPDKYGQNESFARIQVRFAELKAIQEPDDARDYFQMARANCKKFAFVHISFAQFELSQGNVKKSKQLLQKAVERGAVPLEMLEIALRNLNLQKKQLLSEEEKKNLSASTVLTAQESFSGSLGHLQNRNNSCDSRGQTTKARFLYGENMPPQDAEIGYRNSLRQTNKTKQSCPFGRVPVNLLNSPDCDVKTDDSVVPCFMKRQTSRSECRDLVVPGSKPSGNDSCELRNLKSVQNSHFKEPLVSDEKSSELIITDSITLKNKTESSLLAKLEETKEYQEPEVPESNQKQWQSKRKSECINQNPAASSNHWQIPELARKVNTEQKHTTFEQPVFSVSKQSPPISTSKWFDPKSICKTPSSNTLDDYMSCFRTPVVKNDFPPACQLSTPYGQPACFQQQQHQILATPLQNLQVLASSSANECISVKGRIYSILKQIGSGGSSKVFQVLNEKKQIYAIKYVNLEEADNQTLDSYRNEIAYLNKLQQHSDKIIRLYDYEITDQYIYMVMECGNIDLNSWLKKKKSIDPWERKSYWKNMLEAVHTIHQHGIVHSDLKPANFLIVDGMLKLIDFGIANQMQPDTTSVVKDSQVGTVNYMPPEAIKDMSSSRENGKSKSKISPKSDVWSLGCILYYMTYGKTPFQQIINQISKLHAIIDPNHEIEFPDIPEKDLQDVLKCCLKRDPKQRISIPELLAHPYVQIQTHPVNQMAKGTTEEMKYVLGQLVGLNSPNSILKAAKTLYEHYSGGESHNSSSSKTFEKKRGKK

[8] = biological target: T2, Mitogen-activated protein kinase 12 (Homo sapiens) (UniProt P53778); experiment: Inhibition of recombinant human His-tagged full length p38 gamma expressed in baculovirus expression system using Ser/Thr 03 as substrate at 0.1 uM incubated for 60 mins by Z'-Lyte assay relative to control
T2 sequence (whole entry): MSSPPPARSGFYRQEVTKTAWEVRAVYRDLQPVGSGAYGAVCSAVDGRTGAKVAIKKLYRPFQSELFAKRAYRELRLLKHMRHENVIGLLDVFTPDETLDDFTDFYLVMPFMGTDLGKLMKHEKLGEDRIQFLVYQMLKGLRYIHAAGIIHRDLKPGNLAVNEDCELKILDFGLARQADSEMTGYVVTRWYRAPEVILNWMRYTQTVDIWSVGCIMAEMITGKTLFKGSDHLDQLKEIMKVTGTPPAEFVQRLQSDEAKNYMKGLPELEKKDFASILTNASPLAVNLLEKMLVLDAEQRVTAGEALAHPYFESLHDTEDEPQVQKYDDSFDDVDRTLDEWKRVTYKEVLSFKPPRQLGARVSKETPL

[9] = biological target: Mitogen-activated protein kinase 14 (Homo sapiens) (UniProt Q16539); experiment: Inhibition of recombinant human GST-tagged full length p38 alpha expressed in Escherichia coli expression system using Ser/Thr 15 as substrate at 0.1 uM incubated for 60 mins by Z'-Lyte assay relative to control
Sequence of Mitogen-activated protein kinase 14 (Homo sapiens) (Q16539 whole entry): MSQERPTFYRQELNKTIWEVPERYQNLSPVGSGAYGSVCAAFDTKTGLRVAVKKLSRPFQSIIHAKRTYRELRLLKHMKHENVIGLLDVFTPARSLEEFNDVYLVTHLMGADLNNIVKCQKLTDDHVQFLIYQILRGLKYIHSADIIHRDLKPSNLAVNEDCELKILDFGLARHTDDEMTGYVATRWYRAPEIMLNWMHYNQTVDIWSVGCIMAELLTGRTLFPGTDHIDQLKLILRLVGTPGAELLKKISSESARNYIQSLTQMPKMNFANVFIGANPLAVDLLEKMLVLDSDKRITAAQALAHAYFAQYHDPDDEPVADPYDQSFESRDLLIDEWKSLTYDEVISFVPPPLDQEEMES

[10] = biological target: T3, cGMP-dependent protein kinase 1 (Homo sapiens) (UniProt Q13976); experiment: Inhibition of recombinant human GST-tagged full length PKG1 alpha expressed in baculovirus expression system using Ser/Thr 01 as substrate at 0.1 uM incubated for 60 mins by Z'-Lyte assay relative to control
T3 sequence (whole entry): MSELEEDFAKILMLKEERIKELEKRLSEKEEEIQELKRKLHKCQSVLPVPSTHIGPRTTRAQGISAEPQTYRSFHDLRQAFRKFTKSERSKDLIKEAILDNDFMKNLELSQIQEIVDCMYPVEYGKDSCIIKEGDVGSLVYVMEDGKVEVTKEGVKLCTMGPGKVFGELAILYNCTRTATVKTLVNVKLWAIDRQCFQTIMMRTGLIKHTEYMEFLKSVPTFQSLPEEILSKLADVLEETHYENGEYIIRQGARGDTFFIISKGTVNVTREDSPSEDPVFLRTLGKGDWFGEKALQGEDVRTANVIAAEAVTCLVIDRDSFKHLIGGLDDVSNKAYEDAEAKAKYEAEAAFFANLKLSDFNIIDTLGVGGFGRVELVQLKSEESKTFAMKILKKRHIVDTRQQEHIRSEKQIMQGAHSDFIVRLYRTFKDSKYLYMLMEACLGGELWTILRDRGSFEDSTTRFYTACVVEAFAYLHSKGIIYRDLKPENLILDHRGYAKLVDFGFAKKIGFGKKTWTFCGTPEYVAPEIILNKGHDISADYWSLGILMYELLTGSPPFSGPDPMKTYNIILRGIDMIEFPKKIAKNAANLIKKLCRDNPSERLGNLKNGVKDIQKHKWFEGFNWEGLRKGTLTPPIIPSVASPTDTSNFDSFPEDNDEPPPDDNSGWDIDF

in vitro = conditions: dog, MDCK
Description: Efflux ratio of apparent permeability basolateral to apical over apical to basolateral side in MDCK cells at 10 uM incubated upto 180 mins by LC/MS-MS analysis

Sequence of Proto-oncogene tyrosine-protein kinase Src (Homo sapiens) (P12931 2-536 limits assumed): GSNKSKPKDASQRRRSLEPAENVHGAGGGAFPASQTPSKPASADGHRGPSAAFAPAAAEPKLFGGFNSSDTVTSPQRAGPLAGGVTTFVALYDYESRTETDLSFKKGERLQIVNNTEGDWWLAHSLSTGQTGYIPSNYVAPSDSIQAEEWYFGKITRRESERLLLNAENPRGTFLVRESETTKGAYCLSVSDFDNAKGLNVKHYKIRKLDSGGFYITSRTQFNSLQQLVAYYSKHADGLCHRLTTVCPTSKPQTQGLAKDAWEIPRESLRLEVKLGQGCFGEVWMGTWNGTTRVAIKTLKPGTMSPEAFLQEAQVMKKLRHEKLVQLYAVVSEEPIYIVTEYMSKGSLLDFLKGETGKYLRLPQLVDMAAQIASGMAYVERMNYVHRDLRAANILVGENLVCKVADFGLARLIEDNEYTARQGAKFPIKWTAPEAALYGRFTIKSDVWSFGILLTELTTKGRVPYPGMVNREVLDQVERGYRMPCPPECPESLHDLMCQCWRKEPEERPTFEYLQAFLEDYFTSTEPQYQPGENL

SMILES | inhibition [1] | inhibition [2] | inhibition [3] | inhibition [4] | inhibition [5] | inhibition [6] | inhibition [7] | inhibition [8] | inhibition [9] | inhibition [10] | efflux ratio at 3 h, 10 µM (in vitro)
O=C(Nc1c[nH]nc1-c1cc(Cl)ccc1OC(F)F)c1cnn2cccnc12 | 38% | 32% | 21% | 7% | 6% | 5% | 4% | -1% | -4% | 0% | 1.1
O=C(Nc1c[nH]nc1-c1cc2ccccc2cc1OC(F)F)c1cnn2cccnc12 | 35% | 33% | 17% | 7% | -3% | 0% | -3% | 5% | 2% | 3% | 1.2
Cn1cc(NC(=O)c2cnn3cccnc23)c(-c2cc(Cl)ccc2OC(F)F)n1 | 28% | 30% | 12% | -3% | 29% | 4% | 5% | 4% | 7% | 4% | 0.55
